Assay results from patent publication US12653785B2, “Compositions and methods for administering a YAP1/WWRT1 inhibiting composition and a GLS1 inhibiting composition” (UNIVERSITY OF PITTSBURGH—OF THE COMMONWEALTH SYSTEM OF …, priority 2020, dated 2026).

Columns and labels:
[1] = Encapsulation efficiency, loading and release kinetics of drugs from PLGA microparticles; assay type: physicochemical; settings: different formulations (single drug or combination); 0.2% tween 80, 37° C.
Protocol: The morphology of the microparticles was characterized using scanning electron microscopy (SEM—JEOL JSM6510) and the average size of the blank microparticles was determined using dynamic light scattering (Malvern, Worcestershire, UK). The release kinetics of the drugs from PLGA microparticles was determined by incubating 1 mg of microparticles with or without drugs in 1 mL of 0.2% tween 80 (Fisher Scientific, Pittsburgh, PA) in centrifuge tubes on end-over-end rotator at 37° C. Every day for 10 days, the tubes were centrifuged at 2000 g for 5 min, 0.8 mL of the supernatant was retrieved and frozen at −20° C., and 0.8 mL of fresh 0.2% tween 80 was replaced in the tubes. These tubes were then returned to the incubator.
In order to assess the concentration of verteporfin, UV-vis spectroscopy plate reader (SpectraMax, Molecular Devices, Sunnyvale, CA) was utilized. […] Using this wavelength, a standard curve was plotted, and the concentration of the released verteporfin from microparticles was determined. The cumulative amount of verteporfin released from the microparticles was quantified and utilized to determine the percentage encapsulation efficiency and percentage loading.
In order to assess the concentration of CB-839, a high-performance liquid chromatography (HPLC Ultimate 3000, Fisher Scientific, Pittsburgh, PA) protocol was developed. […]

[2] = test system: monocrotaline rat model of PH; settings: drugs delivered systemically; cited from earlier work

| SMILES | duration of sustained release from PLGA microparticles [1] | reversal of PH (hemodynamic and histopathologic manifestations) [2] |
| --- | --- | --- |
| C=Cc1c(C)c2cc3nc(cc4[nH]c(cc5nc(cc1[nH]2)C(C)=C5CCC(=O)O)c(CCC(=O)OC)c4C)[C@@]1(C)C3=CC=C(C(=O)OC)[C@H]1C(=O)OC [verteporfin, 3-[(23S,24R)-14-ethenyl-5-(3-methoxy-3-oxopropyl)-22,23-bis(methoxycarbonyl)-4,10,15,24-tetramethyl-25,26,27,28-tetraazahexacyclo[16.6.1.1^3,6.1^8,11.1^13,16.0^19,24]octacosa-1,3,5,7,9,11(27),12,14,16,18(25),19,21-dodecaen-9-yl]propanoic acid] | 6 days | substantial reversal |
| CN(C)c1ccc(C2Nc3ccc4ccccc4c3C3=C2C(=O)CC(C)(C)C3)cc1Br (centres unmarked) [C968, 5-(3-Bromo-4-(dimethylamino)phenyl)-2,2-dimethyl-2,3,5,6-tetrahydrobenzo[a]phenanthridin-4(1H)-one] | – | substantial reversal |
| O=C(Cc1cccc(OC(F)(F)F)c1)Nc1ccc(CCCCc2nnc(NC(=O)Cc3ccccn3)s2)nn1 [CB-839] | 10 days | substantial reversal |
